ChEMBL document CHEMBL3885861, “Open TG-GATES”

Organism: Rattus norvegicus
Assay: Open TG-GATES - Regimen: Daily Repeat
Assay type: toxicity, organism-based, Sprague-Dawley
Parameters: regimen Daily Repeat, gender Male, age 6 weeks
Details: in vivo, po, route gavage; for APTT / Bas / Eos / Fbg / Hb / Ht / Lym / MCH / MCHC / MCV / Mono / Neu / PT / Plat / RBC / Ret / WBC: tissue Blood; for KIDNEY_L / KIDNEY_R / KIDNEY_TOTAL: tissue Kidney; for LIVER: tissue Liver; for A/G / ALP / ALT / AST / BUN / CRE / Ca / Cl / DBIL / GLC / IP / K / LDH / Na / PL / RALB / TBIL / TC / TG / TP / gamma-GTP: tissue Plasma
[1] = 0 mg/kg, 72 h, dose level Control, time 3 day
[2] = 0 mg/kg, […], dose level Control, time 7 day
[3] = 0 mg/kg, […], dose level Control, time 14 day
[4] = 0 mg/kg, […], dose level Control, time 28 day
[5] = 15 mg/kg, 72 h, dose level Low, time 3 day
[6] = 15 mg/kg, […], dose level Low, time 7 day
[7] = 15 mg/kg, […], dose level Low, time 14 day
[8] = 15 mg/kg, […], dose level Low, time 28 day

## O=c1ccc2ccccc2o1 [COUMARIN]
[1]
  TERMINAL_BW: 197.7 g
  APTT: 16.2 s
  Bas: 0%
  Eos: 1.2%
  Fbg: 204.2 mg/dL
  Hb: 13.4 g/dL
  Ht: 40.7%
  Lym: 64.8%
  MCH: 21.6 pg
  MCHC: 32.8%
  MCV: 65.9 fL
  Mono: 9.8%
  Neu: 24.2%
  PT: 11.8 s
  Plat: 97.8 x10_4/uL
  RBC: 617.8 x10_4/ul
  Ret: 8%
  WBC: 95.9 x10_2/uL
  KIDNEY_L: 0.9 g
  KIDNEY_R: 0.9 g
  KIDNEY_TOTAL: 1.9 g
  LIVER: 9.7 g
  A/G: 2.1
  ALP: 849.4 IU/L
  ALT: 39.8 IU/L
  AST: 68.6 IU/L
  BUN: 15.2 mg/dL
  CRE: 0.5 mg/dL
  Ca: 10.7 mg/dL
  Cl: 104.8 meq/L
  DBIL: 0.036 mg/dL
  GLC: 204.6 mg/dL
  IP: 8 mg/dL
  K: 4.9 meq/L
  LDH: 87.4 IU/L
  Na: 138.8 meq/L
  PL: 134.6 mg/dL
  RALB: 3.8 g/dL
  TBIL: 0.3 mg/dL
  TC: 79.6 mg/dL
  TG: 58.6 mg/dL
  TP: 5.6 g/dL
  gamma-GTP: 1 IU/L
[2]
  TERMINAL_BW: 227.5 g
  APTT: 16.5 s
  Bas: 0%
  Eos: 0.6%
  Fbg: 218.4 mg/dL
  Hb: 13.8 g/dL
  Ht: 41.6%
  Lym: 83.4%
  MCH: 21.3 pg
  MCHC: 33.2%
  MCV: 64.1 fL
  Mono: 4%
  Neu: 11.8%
  PT: 12 s
  Plat: 108.5 x10_4/uL
  RBC: 649.8 x10_4/ul
  Ret: 6.1%
  WBC: 145 x10_2/uL
  KIDNEY_L: 1 g
  KIDNEY_R: 1 g
  KIDNEY_TOTAL: 2 g
  LIVER: 11.4 g
  A/G: 2.2
  ALP: 954.6 IU/L
  ALT: 35.6 IU/L
  AST: 58 IU/L
  BUN: 17.8 mg/dL
  CRE: 0.6 mg/dL
  Ca: 10.6 mg/dL
  Cl: 104.8 meq/L
  DBIL: 0.014 mg/dL
  GLC: 189.8 mg/dL
  IP: 7.5 mg/dL
  K: 4.9 meq/L
  LDH: 79.6 IU/L
  Na: 138.6 meq/L
  PL: 142.6 mg/dL
  RALB: 3.9 g/dL
  TBIL: 0.3 mg/dL
  TC: 70 mg/dL
  TG: 108.8 mg/dL
  TP: 5.7 g/dL
  gamma-GTP: 1.4 IU/L
[3]
  TERMINAL_BW: 286.1 g
  APTT: 16.7 s
  Bas: 0.2%
  Eos: 0.6%
  Fbg: 230.2 mg/dL
  Hb: 14.2 g/dL
  Ht: 42.9%
  Lym: 81%
  MCH: 20.6 pg
  MCHC: 33.2%
  MCV: 62 fL
  Mono: 7.4%
  Neu: 10.8%
  PT: 11.7 s
  Plat: 117.6 x10_4/uL
  RBC: 692.4 x10_4/ul
  Ret: 4.8%
  WBC: 114.9 x10_2/uL
  KIDNEY_L: 1.2 g
  KIDNEY_R: 1.2 g
  KIDNEY_TOTAL: 2.3 g
  LIVER: 14 g
  A/G: 2
  ALP: 840.4 IU/L
  ALT: 32.4 IU/L
  AST: 59 IU/L
  BUN: 17.2 mg/dL
  CRE: 0.6 mg/dL
  Ca: 10.8 mg/dL
  Cl: 106.2 meq/L
  DBIL: 0.08 mg/dL
  GLC: 192 mg/dL
  IP: 7.5 mg/dL
  K: 4.8 meq/L
  LDH: 84.8 IU/L
  Na: 139.4 meq/L
  PL: 165.8 mg/dL
  RALB: 4 g/dL
  TBIL: 0.3 mg/dL
  TC: 84 mg/dL
  TG: 104 mg/dL
  TP: 6 g/dL
  gamma-GTP: 1.4 IU/L
[4]
  TERMINAL_BW: 359.5 g
  APTT: 17.8 s
  Bas: 0.2%
  Eos: 1.2%
  Fbg: 225 mg/dL
  Hb: 15.1 g/dL
  Ht: 45.2%
  Lym: 79.6%
  MCH: 19.6 pg
  MCHC: 33.4%
  MCV: 58.8 fL
  Mono: 5%
  Neu: 13.8%
  PT: 12 s
  Plat: 101 x10_4/uL
  RBC: 769 x10_4/ul
  Ret: 2.8%
  WBC: 128.8 x10_2/uL
  KIDNEY_L: 1.4 g
  KIDNEY_R: 1.4 g
  KIDNEY_TOTAL: 2.7 g
  LIVER: 16.1 g
  A/G: 1.7
  ALP: 705.8 IU/L
  ALT: 31.2 IU/L
  AST: 54.2 IU/L
  BUN: 18.8 mg/dL
  CRE: 0.6 mg/dL
  Ca: 10.7 mg/dL
  Cl: 106 meq/L
  DBIL: 0.012 mg/dL
  GLC: 215 mg/dL
  IP: 6.5 mg/dL
  K: 4.5 meq/L
  LDH: 51 IU/L
  Na: 138.8 meq/L
  PL: 137.4 mg/dL
  RALB: 4 g/dL
  TBIL: 0.3 mg/dL
  TC: 63 mg/dL
  TG: 126 mg/dL
  TP: 6.4 g/dL
  gamma-GTP: 1 IU/L
[5]
  TERMINAL_BW: 198.3 g
  APTT: 15.1 s
  Bas: 0%
  Eos: 1%
  Fbg: 192.4 mg/dL
  Hb: 13.1 g/dL
  Ht: 39.5%
  Lym: 72.2%
  MCH: 21.5 pg
  MCHC: 33.2%
  MCV: 64.8 fL
  Mono: 9.8%
  Neu: 17%
  PT: 11.6 s
  Plat: 110.7 x10_4/uL
  RBC: 608.6 x10_4/ul
  Ret: 7.9%
  WBC: 108.8 x10_2/uL
  KIDNEY_L: 0.9 g
  KIDNEY_R: 0.9 g
  KIDNEY_TOTAL: 1.8 g
  LIVER: 10.1 g
  A/G: 2.1
  ALP: 921.6 IU/L
  ALT: 40.6 IU/L
  AST: 68 IU/L
  BUN: 14.8 mg/dL
  CRE: 0.5 mg/dL
  Ca: 10.8 mg/dL
  Cl: 104.6 meq/L
  DBIL: 0.02 mg/dL
  GLC: 190 mg/dL
  IP: 8.3 mg/dL
  K: 4.9 meq/L
  LDH: 78.2 IU/L
  Na: 138.8 meq/L
  PL: 150 mg/dL
  RALB: 3.7 g/dL
  TBIL: 0.3 mg/dL
  TC: 89.2 mg/dL
  TG: 68 mg/dL
  TP: 5.5 g/dL
  gamma-GTP: 1.6 IU/L
[6]
  TERMINAL_BW: 228.4 g
  APTT: 16 s
  Bas: 0%
  Eos: 1%
  Fbg: 223.8 mg/dL
  Hb: 13.9 g/dL
  Ht: 42%
  Lym: 81.6%
  MCH: 21.3 pg
  MCHC: 33%
  MCV: 64.4 fL
  Mono: 5.2%
  Neu: 12.4%
  PT: 11.5 s
  Plat: 119 x10_4/uL
  RBC: 653.2 x10_4/ul
  Ret: 6.1%
  WBC: 129.6 x10_2/uL
  KIDNEY_L: 1 g
  KIDNEY_R: 1 g
  KIDNEY_TOTAL: 2 g
  LIVER: 11.6 g
  A/G: 2.1
  ALP: 1042 IU/L
  ALT: 34.2 IU/L
  AST: 53.8 IU/L
  BUN: 16 mg/dL
  CRE: 0.5 mg/dL
  Ca: 10.9 mg/dL
  Cl: 104.8 meq/L
  DBIL: 0.022 mg/dL
  GLC: 192 mg/dL
  IP: 7.4 mg/dL
  K: 5 meq/L
  LDH: 85.4 IU/L
  Na: 138.4 meq/L
  PL: 178.6 mg/dL
  RALB: 4 g/dL
  TBIL: 0.3 mg/dL
  TC: 97.6 mg/dL
  TG: 96 mg/dL
  TP: 6 g/dL
  gamma-GTP: 2 IU/L
[7]
  TERMINAL_BW: 282.9 g
  APTT: 17.1 s
  Bas: 0%
  Eos: 0.6%
  Fbg: 225.6 mg/dL
  Hb: 13.9 g/dL
  Ht: 41.8%
  Lym: 82.6%
  MCH: 20.4 pg
  MCHC: 33.3%
  MCV: 61.2 fL
  Mono: 4.8%
  Neu: 12%
  PT: 11.4 s
  Plat: 118.1 x10_4/uL
  RBC: 683 x10_4/ul
  Ret: 4.8%
  WBC: 144.2 x10_2/uL
  KIDNEY_L: 1.1 g
  KIDNEY_R: 1.1 g
  KIDNEY_TOTAL: 2.3 g
  LIVER: 14.2 g
  A/G: 1.9
  ALP: 761.8 IU/L
  ALT: 40 IU/L
  AST: 59 IU/L
  BUN: 18.2 mg/dL
  CRE: 0.5 mg/dL
  Ca: 10.9 mg/dL
  Cl: 106 meq/L
  DBIL: 0.042 mg/dL
  GLC: 194.6 mg/dL
  IP: 6.6 mg/dL
  K: 5.1 meq/L
  LDH: 87 IU/L
  Na: 138.2 meq/L
  PL: 171.2 mg/dL
  RALB: 4 g/dL
  TBIL: 0.3 mg/dL
  TC: 84.4 mg/dL
  TG: 116.8 mg/dL
  TP: 6.1 g/dL
  gamma-GTP: 1.2 IU/L
[8]
  TERMINAL_BW: 347.7 g
  APTT: 18.3 s
  Bas: 0%
  Eos: 1.2%
  Fbg: 217.2 mg/dL
  Hb: 14.8 g/dL
  Ht: 44%
  Lym: 80%
  MCH: 19.9 pg
  MCHC: 33.5%
  MCV: 59.3 fL
  Mono: 8%
  Neu: 11%
  PT: 11.8 s
  Plat: 108.5 x10_4/uL
  RBC: 743.6 x10_4/ul
  Ret: 3%
  WBC: 134.3 x10_2/uL
  KIDNEY_L: 1.3 g
  KIDNEY_R: 1.3 g
  KIDNEY_TOTAL: 2.6 g
  LIVER: 16.4 g
  A/G: 1.7
  ALP: 681.4 IU/L
  ALT: 33.2 IU/L
  AST: 52.4 IU/L
  BUN: 19.6 mg/dL
  CRE: 0.6 mg/dL
  Ca: 10.8 mg/dL
  Cl: 107.4 meq/L
  DBIL: 0.012 mg/dL
  GLC: 187.6 mg/dL
  IP: 6.7 mg/dL
  K: 4.3 meq/L
  LDH: 46.4 IU/L
  Na: 139.4 meq/L
  PL: 145.6 mg/dL
  RALB: 4.2 g/dL
  TBIL: 0.4 mg/dL
  TC: 70.8 mg/dL
  TG: 123.8 mg/dL
  TP: 6.6 g/dL
  gamma-GTP: 1 IU/L
